Measured values published in patent US20210386367A1, “DEVICES AND SYSTEMS FOR GASTROINTESTINAL MICROBIOME DETECTION AND MANIPULATION” (Progenity, Inc., priority 2018, published 2021).
In brackets after ≈: the same amount, converted by molar mass. Read-outs that look alike come from different tables or passages of the source.

Assays:
Bacteroides fragilis = assay: Agar dilution MIC, 30 clinical isolates; format: cell-based
E. coli MMX 1312 = assay: Broth microdilution MIC (time-kill study); format: cell-based, Escherichia coli
S. pyogenes ATCC 49399 [1] = assay: Broth microdilution MIC (time-kill study); format: cell-based, Streptococcus pyogenes
S. agalactiae ATCC 13813 [2] = assay: Broth microdilution MIC (time-kill study); format: cell-based, Streptococcus agalactiae
B. fragilis ATCC 25285 = assay: Broth microdilution MIC (time-kill study); format: cell-based, Bacteroides fragilis
B. vulgatus ATCC 8482 = assay: Broth microdilution MIC (time-kill study); format: cell-based, Bacteroides vulgatus
E. coli ATCC 35218 = assay: Time-kill assay; format: cell-based, Escherichia coli; settings: 2×, 4×, 8× MIC; 2, 6, 24 hr
S. pneumoniae ATCC 49619 = assay: Time-kill assay; format: cell-based, Streptococcus pneumoniae; settings: 2×, 4×, 8× MIC; 2, 6, 24 hr
S. pyogenes ATCC 49399 [3] = assay: Time-kill assay; format: cell-based, Streptococcus pyogenes; settings: 2×, 4×, 8× MIC; 2, 6, 24 hr
S. agalactiae ATCC 13813 [4] = assay: Time-kill assay; format: cell-based, Streptococcus agalactiae; settings: 2×, 4×, 8× MIC; 2, 6, 24 hr
[5] = system: three isolates each of E. coli, Streptococcus spp. and Bacteroides spp.; assay: Time-kill assay, overall summary; format: cell-based
Procedure: MIC values were determined by broth microdilution in accordance with guidelines from the Clinical and Laboratory Standards Institute (CLSI; (1) “Methods for Dilution Antimicrobial Susceptibility Tests for Bacteria That Grow Aerobically; Approved Standard; 11th ed.,” CLSI standard M07, 2018; (2) “Performance Standards for Antimicrobial Susceptibility Testing; 28th ed.,” CLSI supplement M100, 2018).
During the time-kill study, the test flasks were sampled at 2, 6, and 24 hr for determination of viable counts using the track dilution method as described above. Bacteroides was also sampled at 48 hr. All E. coli plates were incubated for 20-24 hr at 35° C., Streptococci for 20-24 hr at 35° C. in a CO2 incubator, and Bacteroides for approximately 48 hr at 35° C. in the anaerobe chamber. Colonies were counted manually, and the CFU/mL was determined from the average count of the duplicate plates, followed by the calculation of the log10 CFU/mL. The limit of detection for the assay was 50 CFU/mL.

[6] = system: Streptococcus spp. (S. pneumoniae ATCC 49619, S. pyogenes ATCC 49399, S. agalactiae ATCC 13813); assay: Agar dilution MIC (spontaneous mutation study; strain in conditions); format: cell-based
[7] = system: E. coli spontaneous mutants; assay: Broth microdilution MIC of spontaneous mutants; format: cell-based, Escherichia coli; settings: for MIC: Escherichia coli
Summary of the method: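 Spontaneous mutants from drug selection plates were tested by CLSI broth microdilution in MHB II with two-fold serial drug dilutions. Inoculum was about 5×10^5 CFU/mL, incubated aerobically at 35° C. for 18-20 hr. MIC was the lowest concentration inhibiting visible growth.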

[8] = system: E. coli spontaneous mutants; settings: E. coli ATCC 25922; CLSI QC range shown in parentheses; cited from earlier work
[9] = system: Streptococcus spp. spontaneous mutants; settings: S. pneumoniae ATCC 49619; CLSI QC range shown in parentheses; cited from earlier work
[10] = 30 Bacteroides fragilis clinical isolates

C[C@@H](O)[C@H]1C(=O)N2C(C(=O)O)=C(S[C@@H]3CN[C@H](C(=O)N(C)C)C3)[C@H](C)[C@H]12 [meropenem]
isolates with intermediate resistance (Bacteroides fragilis): Twenty | relative activity among drugs tested (Bacteroides fragilis): meropenem and rifaximin had similar activity | % I (Bacteroides fragilis; [10]): 20% | % S (Bacteroides fragilis; [10]): 80% | MIC50 (Bacteroides fragilis; [10]): 0.25 µg/mL (≈ 0.652 µM) | MIC90 (Bacteroides fragilis; [10]): >8 µg/mL | MIC50 (Bacteroides fragilis; Bacteroides fragilis, read-out: MIC50): 0.25 µg/mL (≈ 0.652 µM) | MIC90 (Bacteroides fragilis; Bacteroides fragilis, read-out: MIC90): > 8 µg/mL | Mode (Bacteroides fragilis; modal MIC, 30 Bacteroides fragilis clinical isolates): 0.25 µg/mL | MIC (E. coli MMX 1312; E. coli MMX 1312): 0.008 µg/mL (≈ 0.0209 µM) | MIC (E. coli MMX 1312; Escherichia coli, MMX1312, broth microdilution, read-out: MIC): 0.008 µg/mL (≈ 0.0209 µM) | MIC (S. pyogenes ATCC 49399 [1]; S. pyogenes ATCC 49399): 0.004 µg/mL (≈ 0.0104 µM) | MIC (S. pyogenes ATCC 49399 [1]; Streptococcus pyogenes, ATCC49399, broth microdilution, read-out: MIC): 0.004 µg/mL (≈ 0.0104 µM) | MIC (S. agalactiae ATCC 13813 [2]; S. agalacttae ATCC 13813 (so in the source)): 0.008 µg/mL (≈ 0.0209 µM) | MIC (S. agalactiae ATCC 13813 [2]; Streptococcus agalactiae, ATCC13813, broth microdilution, read-out: MIC): 0.008 µg/mL (≈ 0.0209 µM) | MIC (B. fragilis ATCC 25285; B. fragilis MMX 123 ATCC 25285): 0.06 µg/mL (≈ 0.156 µM) | MIC (B. fragilis ATCC 25285; Bacteroides fragilis, ATCC25285, broth microdilution, read-out: MIC): 0.06 µg/mL (≈ 0.156 µM) | MIC (B. vulgatus ATCC 8482; B. vulgatus ATCC 8482): 0.12 µg/mL (≈ 0.313 µM) | MIC (B. vulgatus ATCC 8482; Phocaeicola vulgatus, ATCC8482, broth microdilution, read-out: MIC): 0.12 µg/mL (≈ 0.313 µM) | time-kill kinetics outcome (bactericidal = ≥3 log reduction in CFU per mL) (E. coli ATCC 35218): rapid killing and bactericidal activity at the two higher concentrations at 24 hr | time-kill kinetics outcome (bactericidal = ≥3 log reduction in CFU per mL) (S. pneumoniae ATCC 49619): all three drug concentrations tested demonstrated bactericidal effects at 24 hr | time-kill kinetics outcome (bactericidal = ≥3 log reduction in CFU per mL) (S. pyogenes ATCC 49399 [3]): bactericidal effect at 4× and 8×MIC at 24 hr | time-kill kinetics outcome (bactericidal = ≥3 log reduction in CFU per mL) (S. agalactiae ATCC 13813 [4]): bactericidal effect at 24 hr at 8×MIC | overall time-kill outcome [5]: bactericidal activity | MIC ([6]; Streptococcus agalactiae, S. agalactiae ATCC 13813, read-out: Agar MIC): 0.03 µg/mL (≈ 0.0782 µM) | MIC ([6]; Streptococcus pneumoniae, S. pneumoniae ATCC 49619, read-out: Agar MIC): 0.06 µg/mL (≈ 0.156 µM) | MIC ([6]; Streptococcus pyogenes, S. pyogenes ATCC 49399, read-out: Agar MIC): 0.008 µg/mL (≈ 0.0209 µM) | MIC ([6]; over evaluated Streptococcus spp. (range stated jointly with other groups), read-out: MIC values (agar dilution)): 0.008 to 0.12 µg/mL (≈ 0.0209 to 0.313 µM) | MIC ([7]; ATCC25922, E. coli ATCC 25922, selected on rifaximin 4X MIC, Colony A): 0.008 µg/mL | MIC ([7]; ATCC25922, E. coli ATCC 25922, selected on rifaximin 4X MIC, Colony B): 0.008 µg/mL | MIC ([7]; ATCC25922, E. coli ATCC 25922, selected on rifaximin 8X MIC, Colony A): 0.008 µg/mL | MIC ([7]; ATCC25922, E. coli ATCC 25922 Parent (Table 52)): 0.03 µg/mL | MIC ([7]; ATCC35218, E. coli ATCC 35218, selected on rifaximin 4X MIC, Colony A): 0.015 µg/mL | MIC ([7]; ATCC35218, E. coli ATCC 35218, selected on rifaximin 4X MIC, Colony B): 0.015 µg/mL | MIC ([7]; ATCC35218, E. coli ATCC 35218, selected on rifaximin 8X MIC, Colony A): 0.015 µg/mL | MIC ([7]; ATCC35218, E. coli ATCC 35218, selected on rifaximin 8X MIC, Colony B): 0.015 µg/mL | MIC ([7]; ATCC35218, E. coli ATCC 35218 Parent (Table 52)): 0.015 µg/mL | MIC ([7]; E. coli MMX 1312, selected on ceftriaxone 4X MIC, Colony A): 0.015 µg/mL | MIC ([7]; E. coli MMX 1312, selected on ceftriaxone 4X MIC, Colony B): 0.015 µg/mL | MIC ([7]; E. coli MMX 1312, selected on ceftriaxone 4X MIC, Colony C): 0.03 µg/mL | MIC ([7]; E. coli MMX 1312, selected on ceftriaxone 8X MIC, Colony A): 0.015 µg/mL | MIC ([7]; E. coli MMX 1312, selected on ceftriaxone 8X MIC, Colony B): 0.03 µg/mL | MIC ([7]; E. coli MMX 1312, selected on ceftriaxone 8X MIC, Colony C): 0.03 µg/mL | MIC ([7]; E. coli MMX 1312, selected on rifaximin 4X MIC, Colony A): 0.008 µg/mL | MIC ([7]; E. coli MMX 1312, selected on rifaximin 4X MIC, Colony B): 0.008 µg/mL | MIC ([7]; E. coli MMX 1312, selected on rifaximin 8X MIC, Colony A): 0.015 µg/mL | MIC ([7]; E. coli MMX 1312, selected on rifaximin 8X MIC, Colony B): 0.015 µg/mL | MIC ([7]; E. coli MMX 1312 Parent): 0.015 µg/mL | MIC ([7]; E. coli MMX 1312 Parent (Table 49)): 0.015 µg/mL | MIC ([7]; E. coli MMX 1312 Parent (Table 52)): 0.015 µg/mL | MIC ([7]; E. coli MMX 1312 mutant selected on meropenem 4X MIC, colony A): 0.015 µg/mL | MIC ([7]; E. coli MMX 1312 mutant selected on meropenem 4X MIC, colony B): 0.015 µg/mL | MIC ([7]; E. coli MMX 1312 mutant selected on meropenem 4X MIC, colony C): 0.015 µg/mL | MIC ([7]; E. coli MMX 1312 mutant selected on meropenem 8X MIC, colony A): 0.015 µg/mL | MIC ([7]; E. coli MMX 1312 mutant selected on meropenem 8X MIC, colony B): 0.015 µg/mL | MIC ([7]; E. coli MMX 1312 mutant selected on meropenem 8X MIC, colony C): 0.015 µg/mL | broth microdilution MIC of selected colonies relative to parent strain ([7]; colonies selected at 4× and 8× the MIC): consistent with that of the parent strain | MIC, CLSI QC range [8]: (0.008-0.06) μg/mL | MIC, CLSI QC range [9]: (0.03-0.25) μg/mL
